One assay in a line: DPPH scavenging assay. It is filed as physicochemical. Conditions: DPPH free radical. The method, then: (§1) The biological activities (e.g., antioxidative activities) of tetrapyrrole compounds described above can be evaluated by a number of assays. For example, an antioxidative activity of a test compound is evaluated by determining the compound's ability to inhibit the formation of conjugated diene during […] linoleic acid peroxidation (Wallin et al (1993) Anal. Biochem. 208: 10-15), or to inhibit the formation of malonyldialdhyde (MDA) during human low density lipoprotein (LDL) peroxidation (Yagi (1982) In lipid peroxides in Biology and Medicine. Yagi, K. (ed), pp. 223-242, Academic Press, New York). In another example, an antioxidative activity of a test compound is evaluated by determining the compound's ability to scavenge the free radicals of ? -diphenyl- ? -picrylhydrazyl (DPPH), or to scavenge superoxide anion, or to chelate Fe2+ cation, or to reduce power. See, e.g., Shimada et aL (1992) J. Agric. Food. Chem. 40: 945-948; Robak & Gryglewski (1988) Biochem. Pharma. 37: 837-841; Dinis et aL (1994) Arch Biochem Biophys 315: 161-169; and Oyaizu (1986) Nippon Shokuhin Kogyo Gakkaishi 35: 771-775.
The compounds were also tested in four other assays, i.e., DPPH scavenging assay, superoxide anion scavenging assay, Fe^2+ chelation assay, and reduction assay. See Shimada et al. J. Agric. Food Chem. (1992) 40:945-948; Robak et al. Biochem. Pharnia. (1988) 37:837-841; Dinis et al. Arch. Biochem. Biophys. (1994) 315:161-169; and Oyaizu et al. Nippon Shokuhin Kogyo Gakkaishi (1986) 35:771-775. Compounds 3 and 4 were stronger scavengers than Compounds 5 and 6 in removing DPPH, which in turn were stronger scavengers than chlorophylls a and b and Compounds 1 and 2. […] The I50 values as to chelating Fe^2+ were lower than those as to scavenging DPPH free radical.
For orientation: DPPH is a stable violet radical that fades when it is reduced.

The subject of assay [1] is human low density lipoprotein (LDL). In words: LDL measurement assay (MDA formation during LDL peroxidation). It is filed as biochemical. As to the method: as §1
Under a linoleic acid emulsion assay (see, e.g., Mitsuda et al. Eiyo Shokuryo (1966) 19:210-0.214 and Wallin et al. Anal. Biochem. (1993) 208:10-15), various degrees of inhibition of conjugated diene formation were observed during lipid peroxidation. In addition to Compounds 1-6, chlorophylls a and b were also tested. […] Further, compounds chelated with Mg, e.g., Compounds 1 and 2, had stronger antioxidative property than those without chelation, e.g., Compounds 3 and 4.

Assay [2] can be described thus: superoxide anion scavenging assay. It is filed as physicochemical. Conditions: increasing concentrations. The method, then: as §1
The compounds were also tested in four other assays, i.e., DPPH scavenging assay, superoxide anion scavenging assay, Fe^2+ chelation assay, and reduction assay. See Shimada et al. J. Agric. Food Chem. (1992) 40:945-948; Robak et al. Biochem. Pharnia. […]

In general, IC50 refers to the midpoint of a concentration-inhibition curve. In the case of `C=Cc1c(C)c2cc3nc(c4c5[nH]c(cc6nc(cc1[nH]2)C(C)=C6CC)c(C)c5C(=O)[C@@H]4C(=O)OC)[C@@H](CCC(=O)OC/C=C(\C)CCC[C@H](C)CCC[C@H](C)CCCC(C)C)[C@@H]3C` [chlorophyll a, reference compound], the IC50 in “DPPH scavenging assay” was about 265 µM; in assay [1], 5 µM.
For `C=Cc1c(C)c2cc3nc(c4c5[nH]c(cc6nc(cc1[nH]2)C(C=O)=C6CC)c(C)c5C(=O)[C@@H]4C(=O)OC)[C@@H](CCC(=O)O)[C@@H]3C` [Compound 2], in that order: about 535 µM and 42 µM.
With `C=Cc1c(C)c2cc3nc(c4c5[nH]c(cc6nc(cc1[nH]2)C(C=O)=C6CC)c(C)c5C(=O)[C@@H]4C(=O)OC)[C@@H](CCC(=O)OC/C=C(\C)CCC[C@H](C)CCC[C@H](C)CCCC(C)C)[C@@H]3C` [chlorophyll b, reference compound], the IC50 in “DPPH scavenging assay” was about 200 µM; in assay [1] it was 26 µM.
In the case of `C=Cc1c(C)c2cc3nc(c4c5[nH]c(cc6nc(cc1[nH]2)C(C)=C6CC)c(C)c5C(=O)C4C(=O)OC)C(CCC(=O)OCC=C(C)CCCC(C)CCCC(C)CCCC(C)C)C3C` (stereo not shown) [Compound 5], the IC50 was about 160 µM in the assay “DPPH scavenging assay” and 17 µM in assay [1]. In assay [2], the “superoxide anion scavenging ability as concentration increased” value is “a gradual increase and a subsequent plateau in their scavenging ability”.
Turning to `Cc1c(C)c2c(c(C)c1O)CCC(C)(C(=O)O)O2` (stereo not shown) [Trolox, reference compound], the IC50 in assay [1] was about 16 µM.
With `C=Cc1c(C)c2cc3nc(c4c5[nH]c(cc6nc(cc1[nH]2)C(C)=C6CC)c(C)c5C(=O)[C@@H]4C(=O)OC)[C@@H](CCC(=O)O)[C@@H]3C` [Compound 3], the IC50 in the assay “DPPH scavenging assay” is about 40 µM; in assay [1], 21 µM.
On to `C=Cc1c(C)c2cc3nc(c4c5[nH]c(cc6nc(cc1[nH]2)C(C)=C6CC)c(C)c5C(=O)[C@@H]4C(=O)OC)[C@@H](CCC(=O)O)[C@@H]3C` [Compound 1], for which the IC50 is over 700 µM in the assay “DPPH scavenging assay” and 10 µM in assay [1].
In the case of `C=Cc1c(C)c2cc3nc(c4c5[nH]c(cc6nc(cc1[nH]2)C(C=O)=C6CC)c(C)c5C(=O)[C@@H]4C(=O)OC)[C@@H](CCC(=O)O)[C@@H]3C` [Compound 4], the values for the IC50 (in “DPPH scavenging assay”; in assay [1]) were about 28 µM and 20 µM, respectively.
On to `C=Cc1c(C)c2cc3nc(c4c5[nH]c(cc6nc(cc1[nH]2)C(C=O)=C6CC)c(C)c5C(=O)C4C(=O)OC)C(CCC(=O)OCC=C(C)CCCC(C)CCCC(C)CCCC(C)C)C3C` (stereo not shown) [Compound 6], for which the results for the IC50 (in the assay “DPPH scavenging assay”; in assay [1]) were about 120 µM and 54 µM, respectively. Also, in assay [2], the “superoxide anion scavenging ability as concentration increased” value is “a gradual increase and a subsequent plateau in their scavenging ability”.
